Measurements as given in patent US8247211B2, “Glycopeptide antibiotics” (American Cyanamid Company, priority 2001, dated 2012).
≈ marks a conversion by molar mass, not a printed value. Each block holds one compound with its values, some of them ahead of it. Numbered stars: 1 amine (or outer) side, 2 acyl side, 3 side chain; on linkers, the order of the positions; unused ones are H or OH. Square brackets hold non-standard residues; d marks the D form. Peptide text beside a SMILES is read from it. ξ: configuration not given here. X1 = N=C1NCC(C(O)C(N[*:1])C(=O)[*:2])N1C1OC(CO)C(O)C(O)C1O; ξEnduracididine(βξ-OH,4'ξ) = N=C1NCC(C(O)C(N)C(=O)O)N1; ξCha(3ξ-Me) = CC(C1CCCCC1)C(N)C(=O)O; Cha = N[CH](CC1CCCCC1)C(=O)O

How the values were obtained:
[1] = Anatomic pathology (heart and kidney histopathology) in mice; assay type: in vivo, CD-1 mice; details: 20 mg/kg intravenously daily for 9 days, microscopic histopathology on day 10
Protocol: 20-day-old CD-1 mice were divided into a vehicle control group (5 mice) and a treatment group (5 mice). Samples of glycopeptide antibiotics were administered at 20 mg/kg intravenously daily for 9 days.
Samples of tissues from necropsied mice were formalin-fixed, paraffin-embedded, sectioned, stained with hematoxylin and eosin, and examined microscopically. Histopathologic findings were recorded. These findings were subjectively graded on a scale corresponding to slight, mild, moderate, marked and severe as compared to untreated controls.

Streptococcus sp. = assay: In vitro antibacterial evaluation: minimum inhibitory concentration (MIC), broth dilution method; assay type: cell-based; details: broth dilution, 18 hours at 35° C.
Summary of the method: (§1)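 Test strains, among them recent clinical isolates carrying methicillin, penicillin and/or vancomycin resistance, were inoculated at 5×10^5 CFU/mL. A broth dilution series spanning 64-0.06 μg/mL in Muller-Hinton II […] (NCCLS M7-A2) defined the MIC as the lowest growth-inhibiting concentration.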

Staphylococcus sp. = assay: as above; assay type: cell-based; details: broth dilution, 18 hours at 35° C.
Summary of the method: as §1

Enterococcus sp. = assay: as above; assay type: cell-based; details: broth dilution, 18 hours at 35° C.
Summary of the method: as §1

Escherichia coli = assay: as above; assay type: cell-based; details: broth dilution, 18 hours at 35° C.

SMILES: N=C1NCC(C(O)C2NC(=O)[C@H](C(O)C3CNC(=N)N3)NC(=O)C(Cc3ccc(O)cc3)NC(=O)[C@H](Cc3ccccc3)NC(=O)CNC(=O)[C@H](CO)NC2=O)N1 (stereo in doubt) [Example 280a, Cyclo[glycylphenylalanyltyrosyl-3-(2-iminoimidazolidin-4-yl)seryl-3-(2-iminoimidazolidin-4-yl)serylseryl]]
Anatomical Pathology (Day 10), Heart [1]: 0
Anatomical Pathology (Day 10), Kidney [1]: ++

MIC Streptococcus agalactiae (GC 4564) (Streptococcus sp.; Streptococcus agalactiae (GC 4564)): 1 µg/mL (≈ 1.03 µM)
MIC Streptococcus pneumoniae (ATCC 6301) (Streptococcus sp.; Streptococcus pneumoniae (ATCC 6301)): 1 µg/mL (≈ 1.03 µM)
MIC Streptococcus pneumoniae (GC 1894) (Streptococcus sp.; Streptococcus pneumoniae (GC 1894)): 1 µg/mL (≈ 1.03 µM)
MIC Streptococcus pneumoniae (GC 4565) (Streptococcus sp.; Streptococcus pneumoniae (GC 4565)): 4 µg/mL (≈ 4.14 µM)
MIC Streptococcus pyogenes (GC 4563) (Streptococcus sp.; Streptococcus pyogenes (GC 4563)): 1 µg/mL (≈ 1.03 µM)
MIC Streptococcus agalactiae (GC 4564) (Streptococcus sp.): 1 µg/mL (≈ 1.03 µM)
MIC Streptococcus pneumoniae (ATCC 6301) (Streptococcus sp.): 1 µg/mL (≈ 1.03 µM)
MIC Streptococcus pneumoniae (GC 1894) (Streptococcus sp.): 1 µg/mL (≈ 1.03 µM)
MIC Streptococcus pneumoniae (GC 4565) (Streptococcus sp.): 4 µg/mL (≈ 4.14 µM)
MIC Streptococcus pyogenes (GC 4563) (Streptococcus sp.): 1 µg/mL (≈ 1.03 µM)
MIC Coagulase Negative Staphylococcus (GC 4547) (Staphylococcus sp.): 2 µg/mL (≈ 2.07 µM)
MIC Coagulase Negative Staphylococcus (GC 4548) (Staphylococcus sp.): 2 µg/mL (≈ 2.07 µM)
MIC Coagulase Negative Staphylococcus (GC 4549) (Staphylococcus sp.): 1 µg/mL (≈ 1.03 µM)
MIC Coagulase Negative Staphylococcus (GC 4551) (Staphylococcus sp.): 2 µg/mL (≈ 2.07 µM)
MIC Staphylococcus aureus SMITH (GC 4543) (Staphylococcus sp.): 2 µg/mL (≈ 2.07 µM)
MIC Staphylococcus aureus-SMITH (GC 4543) (Staphylococcus sp.; strain SMITH GC 4543): 2 µg/mL (≈ 2.07 µM)
MIC Enterococcus faecalis (GC 2242) (Enterococcus sp.; Enterococcus faecalis (GC 2242)): 8 µg/mL (≈ 8.27 µM)
MIC Enterococcus faecalis (GC 2691) (Enterococcus sp.; Enterococcus faecalis (GC 2691)): 8 µg/mL (≈ 8.27 µM)
MIC Enterococcus faecalis (GC 3059) (Enterococcus sp.; Enterococcus faecalis (GC 3059)): 8 µg/mL (≈ 8.27 µM)
MIC Enterococcus avium (GC 4558) (Enterococcus sp.): 4 µg/mL (≈ 4.14 µM)
MIC Enterococcus faecalis (ATCC 29212) (Enterococcus sp.): 8 µg/mL (≈ 8.27 µM)
MIC Enterococcus faecalis (GC 2242) (Enterococcus sp.): 8 µg/mL (≈ 8.27 µM)
MIC Enterococcus faecalis (GC 2691) (Enterococcus sp.): 8 µg/mL (≈ 8.27 µM)
MIC Enterococcus faecalis (GC 3059) (Enterococcus sp.): 8 µg/mL (≈ 8.27 µM)
MIC Enterococcus faecalis (GC 4552) (Enterococcus sp.): 8 µg/mL (≈ 8.27 µM)
MIC Enterococcus faecalis (GC 4553) (Enterococcus sp.): 4 µg/mL (≈ 4.14 µM)
MIC Enterococcus faecalis (GC 4554) (Enterococcus sp.): 16 µg/mL (≈ 16.5 µM)
MIC Enterococcus faecalis (GC 6189) (Enterococcus sp.): 4 µg/mL (≈ 4.14 µM)
MIC Enterococcus faecium (GC 2243) (Enterococcus sp.): 2 µg/mL (≈ 2.07 µM)
MIC Enterococcus faecium (GC 4556) (Enterococcus sp.): 8 µg/mL (≈ 8.27 µM)
MIC Enterococcus faecium (GC 4557) (Enterococcus sp.): 2 µg/mL (≈ 2.07 µM)
MIC Escherichia coli (GC 4560) (Escherichia coli): 4 µg/mL (≈ 4.14 µM)
SMILES: CC(C1CCCCC1)C1NC(=O)CNC(=O)C(CO)NC(=O)C(C(O)C2CNC(=N)N2C2OC(CO)C(O)C(O)C2O)NC(=O)C(C(O)C2CNC(=N)N2)NC(=O)C(CC2CCCCC2)NC1=O (stereo not drawn) [Example 53, Cyclo[3-cyclohexylalanyl-3-(2-iminoimidazolidin-4-yl)seryl-3-(3-hexopyranosyl-2-iminoimidazolidin-4-yl)serylserylglycyl-3-cyclohexyl-2-aminobutanoyl]] (cyclo(G[ξCha(3ξ-Me)][Cha][ξEnduracididine(βξ-OH,4'ξ)][X1]S); configuration not given here)
MIC Staphylococcus haemolyticus (GC 4546) (Staphylococcus sp.): 1 µg/mL (≈ 1.03 µM)
